Patent publication US20090203753A1, “7-(2-amino-1-hydroxy-ethyl)-4-hydroxybenzothiazol-2(3H)-one-derivatives as beta2 adrenoreceptor agonists” (AstraZeneca AB, priority 2005, published 2009)

What was measured:
[1] = target: T1, β2 receptor (Homo sapiens, UniProt P07550); experiment: Alternative adrenergic β2 mediated cAMP production in H292 cells (60 minutes with test compound); assay type: cell-based
T1 construct: endogenous in cells; host or cells: H292 cells
Protocol: Alternative Adrenergic (β2 Mediated cAMP Production
H292 cells were grown in 225 cm2 flasks incubator at 37° C., 5% CO2 in RPMI medium containing, 10% (v/v) FBS (foetal bovine serum) and 2 mM L-glutamine.
Adherent H292 cells were removed from tissue culture flasks by treatment with Accutase™ cell detachment solution for 15 minutes. Flasks were incubated for 15 minutes in a humidified incubator at 37° C., 5% CO2. Detached cells were re-suspended in RPMI media (containing 10% (v/v) FBS and 2 mM L-glutamine) at 0.05×10^6 cells per mL. 5000 cells in 100 μL were added to each well of a tissue-culture-treated 96-well plate and the cells incubated overnight in a humidified incubator at 37° C., 5% CO2. The culture media was removed and cells were washed twice with 100 μL assay buffer and replaced with 50 μL assay buffer (HBSS solution containing 10 mM HEPES pH7.4 and 5 mM glucose). Cells were rested at room temperature for 20 minutes after which time 25 μL of rolipram (1.2 mM made up in assay buffer containing 2.4% (v/v) dimethylsulphoxide) was added. Cells were incubated with rolipram for 10 minutes after which time test compounds were added and the cells were incubated for 60 minutes at room temperature. The final rolipram concentration in the assay was 300 μM and final vehicle concentration was 1.6% (v/v) dimethylsulphoxide. The reaction was stopped by removing supernatants, washing once with 100 μL assay buffer and replacing with 50 μL lysis buffer. The cell monolayer was frozen at −80° C. for 30 minutes (or overnight).
The concentration of cAMP (cyclic adenosine monophosphate) in the cell lysate was determined using AlphaScreen™ methodology. The frozen cell plate was thawed for 20 minutes on a plate shaker then 10 μL of the cell lysate was transferred to a 96-well white plate. 40 μL of mixed AlphaScreen™ detection beads pre-incubated with biotinylated cAMP, was added to each well and the plate incubated at room temperature for 10 hours in the dark. The AlphaScreen™ signal was measured using an EnVision spectrophotometer (Perkin-Elmer Inc.) with the recommended manufacturer's settings. cAMP concentrations were determined by reference to a calibration curve determined in the same experiment using standard cAMP concentrations. Concentration response curves for agonists were constructed and data was fitted to a four parameter logistic equation to determine both the pEC50 and Intrinsic Activity. […]

[2] = target: T2, recombinant human α1D receptor (Homo sapiens, UniProt P25100); experiment: Adrenergic α1D selectivity assay, [3H]-prazosin binding to HEK293 membranes; details: read-out: α1 bind pIC50 (converted)
T2 construct: expressed in transfected cells; host or cells: HEK293
T2 sequence (P25100 1-572): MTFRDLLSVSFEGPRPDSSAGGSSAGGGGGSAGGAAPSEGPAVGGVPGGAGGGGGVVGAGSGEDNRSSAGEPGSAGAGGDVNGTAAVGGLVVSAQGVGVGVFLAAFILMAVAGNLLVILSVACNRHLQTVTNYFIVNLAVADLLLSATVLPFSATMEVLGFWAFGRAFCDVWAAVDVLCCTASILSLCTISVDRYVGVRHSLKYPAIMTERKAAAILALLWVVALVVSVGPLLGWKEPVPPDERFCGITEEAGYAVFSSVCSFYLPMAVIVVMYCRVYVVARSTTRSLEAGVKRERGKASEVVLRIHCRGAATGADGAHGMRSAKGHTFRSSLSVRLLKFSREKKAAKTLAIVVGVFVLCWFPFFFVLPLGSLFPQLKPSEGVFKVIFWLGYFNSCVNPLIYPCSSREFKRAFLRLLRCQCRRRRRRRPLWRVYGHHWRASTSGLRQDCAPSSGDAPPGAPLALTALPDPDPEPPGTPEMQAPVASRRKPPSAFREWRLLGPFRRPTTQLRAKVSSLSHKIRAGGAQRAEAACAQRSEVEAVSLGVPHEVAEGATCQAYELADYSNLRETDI
Protocol: Membranes were prepared from human embryonic kidney 293 (HEK293) cells expressing recombinant human α1D receptor. These were diluted in Assay Buffer (50 mM HEPES, 1 mM EDTA, 0.1% gelatin, pH 7.4) to provide a final concentration of membranes that gave a clear window between maximum and minimum specific binding.
(§1) Assays were performed in U-bottomed 96-well polypropylene plates. 10 μL [^3H]-prazosin (0.3 nM final concentration) and 10 μL of test compound (10× final concentration) were added to each test well. For each assay plate 8 replicates were obtained for [^3H]-prazosin binding in the presence of 10 μL vehicle (10% (v/v) DMSO in Assay Buffer; defining maximum binding) or 10 μL BMY7378 (10 μM final concentration; defining non-specific binding (NSB)). Membranes were then added to achieve a final volume of 100 μL. The plates were incubated for 2 hours at room temperature and then filtered onto PEI coated GF/B filter plates, pre-soaked for 1 hour in Assay Buffer, using a 96-well plate Tomtec cell harvester. Five washes with 250 μL wash buffer (50 mM HEPES, 1 mM EDTA, pH 7.4) were performed at 4° C. to remove unbound radioactivity. The plates were dried then sealed from underneath using Packard plate sealers and MicroScint-O (50 μL) was added to each well. The plates were sealed (TopSeal A) and filter-bound radioactivity was measured with a scintillation counter (TopCount, Packard BioScience) using a 3-minute counting protocol.
(§2) Total specific binding (B0) was determined by subtracting the mean NSB from the mean maximum binding. NSB values were also subtracted from values from all other wells.

[3] = target: T3, recombinant human Dopamine Subtype D2s receptors (Homo sapiens, UniProt P14416); experiment: Dopamine D2 selectivity assay, [3H]-spiperone binding to membranes; details: read-out: D2 bind pIC50 (converted)
T3 construct: purchased Perkin Elmer
T3 sequence (P14416 1-414 isoform P14416-2): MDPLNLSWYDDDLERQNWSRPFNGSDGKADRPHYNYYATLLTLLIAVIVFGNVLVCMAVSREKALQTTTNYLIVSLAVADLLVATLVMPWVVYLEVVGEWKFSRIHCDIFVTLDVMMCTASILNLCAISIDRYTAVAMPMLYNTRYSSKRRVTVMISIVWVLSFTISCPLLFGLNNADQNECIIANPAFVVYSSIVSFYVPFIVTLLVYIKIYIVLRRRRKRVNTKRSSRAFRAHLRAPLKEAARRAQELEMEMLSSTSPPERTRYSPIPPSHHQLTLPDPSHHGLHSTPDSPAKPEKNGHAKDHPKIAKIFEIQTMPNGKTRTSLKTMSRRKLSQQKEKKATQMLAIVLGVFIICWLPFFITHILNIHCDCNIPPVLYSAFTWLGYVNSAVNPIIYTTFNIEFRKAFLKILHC
Protocol: (§3) Membranes containing recombinant human Dopamine Subtype D2s receptors were obtained from Perkin Elmer. These were diluted in Assay Buffer (50 mM HEPES, 1 nM EDTA, 120 mM NaCl, 0.1% gelatin, pH 7.4) to provide a final concentration of membranes that gave a clear window between maximum and minimum specific binding.
Assays were performed in U-bottomed 96-well polypropylene plates. 30 μL [^3H]-spiperone (0.16 nM final concentration) and 30 μL of test compound (10× final concentration) were added to each test well. For each assay plate 8 replicates were obtained for [^3H]-spiperone binding in the presence of 30 μL vehicle (10% (v/v) DMSO in Assay Buffer; defining maximum binding) or 30 μL Haloperidol (10 μM final concentration; defining non-specific binding (NSB)). Membranes were then added to achieve a final volume of 300 μL. The plates were incubated for 2 hours at room temperature and then filtered onto PEI coated GF/B filter plates, pre-soaked for 1 hour in Assay Buffer, using a 96-well plate Tomtec cell harvester. Five washes with 250 μL wash buffer (50 mM HEPES, 1 mM EDTA, 120 mM NaCl, pH 7.4) were performed at 4° C. to remove unbound radioactivity. The plates were dried then sealed from underneath using Packard plate sealers and MicroScint-O (50 μL) was added to each well. The plates were sealed (TopSeal A) and filter-bound radioactivity was measured with a scintillation counter (TopCount, Packard BioScience) using a 3-minute counting protocol.
as §2

[4] = target: T4, recombinant human adrenergic beta 1 receptors (Homo sapiens, UniProt P08588); experiment: Adrenergic β1 selectivity assay, [125I]-Iodocyanopindolol binding to membranes; details: inhibition of [125I]-Iodocyanopindolol binding (0.036 nM); read-out: β1 bind pIC50 (converted)
T4 construct: purchased Euroscreen
T4 sequence (P08588 whole entry): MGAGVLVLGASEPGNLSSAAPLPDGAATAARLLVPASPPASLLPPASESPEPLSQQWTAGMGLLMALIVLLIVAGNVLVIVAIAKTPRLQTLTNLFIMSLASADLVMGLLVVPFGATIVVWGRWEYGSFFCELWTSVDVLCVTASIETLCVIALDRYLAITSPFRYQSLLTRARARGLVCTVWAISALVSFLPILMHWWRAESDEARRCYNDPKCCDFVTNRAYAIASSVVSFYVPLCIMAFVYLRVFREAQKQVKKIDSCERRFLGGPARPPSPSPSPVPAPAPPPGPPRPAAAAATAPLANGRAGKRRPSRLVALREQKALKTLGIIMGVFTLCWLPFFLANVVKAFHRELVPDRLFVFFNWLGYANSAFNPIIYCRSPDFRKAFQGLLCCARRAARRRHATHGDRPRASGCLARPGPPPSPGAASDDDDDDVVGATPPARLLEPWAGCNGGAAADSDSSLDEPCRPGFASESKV
Protocol: as §3, with “adrenergic beta 1” for “Dopamine Subtype D2s”, “Euroscreen.” for “Perkin Elmer.”, “mM” for “nM”
as §1, with “[^125I]-Iodocyanopindolol (0.036” for “[^3H]-prazosin (0.3”, “[^125I]-Iodocyanopindolol” for “[^3H]-prazosin”, “Propranolol” for “BMY7378”, “EDTA, 120 mM NaCl,” for “EDTA,”
as §2

T1 sequence (P07550 whole entry): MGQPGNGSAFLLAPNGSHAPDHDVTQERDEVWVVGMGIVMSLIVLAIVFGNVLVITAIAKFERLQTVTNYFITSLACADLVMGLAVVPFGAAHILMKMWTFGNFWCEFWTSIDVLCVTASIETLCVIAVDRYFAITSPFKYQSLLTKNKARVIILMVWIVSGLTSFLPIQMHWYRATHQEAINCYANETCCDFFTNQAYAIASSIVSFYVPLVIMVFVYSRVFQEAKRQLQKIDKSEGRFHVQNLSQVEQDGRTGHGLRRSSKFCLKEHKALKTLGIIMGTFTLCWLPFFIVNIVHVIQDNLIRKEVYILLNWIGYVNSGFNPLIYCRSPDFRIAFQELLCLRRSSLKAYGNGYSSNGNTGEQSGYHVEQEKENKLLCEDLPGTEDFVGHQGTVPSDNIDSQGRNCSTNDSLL

Q: How did the EC50 ([1]; cAMP, 60 minutes incubation with compound, 300 μM rolipram, read-out: β2 pEC50 (converted)) turn out when `CCN(CC)CCN(CCNC[C@H](O)c1ccc(O)c2[nH]c(=O)sc12)C(=O)CCOCCc1cccc2ccccc12` [Example 6, N-[2-(Diethylamino)ethyl]-N-(2-{[(2R)-2-hydroxy-2-(4-hydroxy-2-oxo-2,3-dihydro-1,3-benzothiazol-7-yl)ethyl]amino}ethyl)-3-[2-(1-naphthyl)ethoxy]propanamide] was run?
A: 2 nM

Q: What about the “β2 Int Act” value ([1]; fraction relative to the maximum activity determined for formoterol, 60 minutes incubation) of the same molecule?
A: 0.9

Q: What about the IC50 [2] of the same molecule?
A: 2510 nM

Q: What about the IC50 [3] of the same molecule?
A: 2510 nM

Q: What about the IC50 [4] of the same molecule?
A: 631 nM
